A word on the microsomal CLint: it is the capacity of the preparation to metabolise the compound, expressed as a volume cleared per time. Low readings indicate greater metabolic stability, high ones faster metabolism. The term IC50 denotes the concentration that inhibits the measured activity by half.

From US9938269B2, “Inhibitor compounds of phosphodiesterase type 10A” (ABBVIE INC., priority 2011, dated 2018) come the findings set out here.

Structures can show the parent of a compound that is named as a salt.

Data set [1] is described as follows: Determination of the microsomal half-life, human liver microsomes. Conditions: for microsomal CLint at 0.5 μM: human, liver microsomes, pH 7.4. Background: Liver microsomes are vesicles of endoplasmic reticulum, rich in cytochrome P450 enzymes.
Data set [2] in a line: Determination of the microsomal half-life, rat liver microsomes. Particulars: rat, liver microsomes, pH 7.4.
In another data set the target is T1, PDE10A (human) (Homo sapiens, UniProt Q9Y233).
T1 construct: purchased BPS Bioscience
T1 sequence (Q9Y233 whole entry): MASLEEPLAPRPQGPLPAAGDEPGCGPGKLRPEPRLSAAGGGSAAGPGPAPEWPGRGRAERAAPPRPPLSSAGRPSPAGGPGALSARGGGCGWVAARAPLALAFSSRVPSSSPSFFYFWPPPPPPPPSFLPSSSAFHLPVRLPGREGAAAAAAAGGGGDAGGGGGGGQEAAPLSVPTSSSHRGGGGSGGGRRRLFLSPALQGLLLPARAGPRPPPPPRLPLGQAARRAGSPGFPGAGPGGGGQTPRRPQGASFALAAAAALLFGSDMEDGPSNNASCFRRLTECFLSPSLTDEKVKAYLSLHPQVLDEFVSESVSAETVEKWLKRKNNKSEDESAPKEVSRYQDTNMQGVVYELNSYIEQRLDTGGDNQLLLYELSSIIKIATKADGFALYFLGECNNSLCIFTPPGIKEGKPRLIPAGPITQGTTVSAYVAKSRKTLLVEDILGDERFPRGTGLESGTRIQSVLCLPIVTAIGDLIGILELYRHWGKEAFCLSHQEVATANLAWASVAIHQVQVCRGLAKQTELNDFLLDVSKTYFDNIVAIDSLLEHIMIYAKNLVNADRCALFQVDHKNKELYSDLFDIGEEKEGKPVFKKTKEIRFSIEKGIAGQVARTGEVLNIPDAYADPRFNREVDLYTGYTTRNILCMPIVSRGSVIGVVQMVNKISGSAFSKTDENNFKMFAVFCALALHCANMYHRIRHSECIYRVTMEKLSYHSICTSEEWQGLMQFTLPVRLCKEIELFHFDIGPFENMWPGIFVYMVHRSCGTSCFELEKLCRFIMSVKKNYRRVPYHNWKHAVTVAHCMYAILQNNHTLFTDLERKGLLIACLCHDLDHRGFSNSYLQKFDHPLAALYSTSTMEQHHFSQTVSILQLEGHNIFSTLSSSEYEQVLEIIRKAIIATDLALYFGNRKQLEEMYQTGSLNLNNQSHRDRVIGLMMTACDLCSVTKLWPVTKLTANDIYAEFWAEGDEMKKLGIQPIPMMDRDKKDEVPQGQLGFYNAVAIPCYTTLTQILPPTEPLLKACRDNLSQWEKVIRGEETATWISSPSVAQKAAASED
Nature of the data set: Measurement of PDE activity (HTRF cAMP kit), human PDE10A. The class given is biochemical. Particulars: PDE enzymatic reaction, substrate 20 nM for PDE10, 60 minutes at 29 C. Summed up:
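Recombinant human PDE10A (10–250 pM range across PDEs) with 20 nM cAMP substrate in 20 mM Tris-HCl pH 7.5, 10 mM MgCl2, 0.1% BSA, compound pre-mixed with enzyme. Ran 60 min at 29 °C. Remaining cAMP read by HTRF, converted to % of uninhibited activity, and IC50 fitted.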
Background: TR-FRET usually uses a lanthanide donor and a delayed reading to cut background.

As to `O=C1c2c(cncc2-c2ccncc2)CN1CCc1ccc2ccccc2n1` [Example 2, 7-Pyridin-4-yl-2-(2-quinolin-2-yl-ethyl)-2,3-dihydro-pyrrolo[3,4-c]pyridin-1-one], the microsomal CLint at 0.5 μM in data set [1] and in data set [2] was 100 to 220 µL/min/mg each time. On PDE10A (human), this molecule registered a concentration for half-maximal inhibition (IC50) of less than 100 nM.

For the molecule `O=C1c2c(-c3ccoc3)ccnc2CN1CCc1cn2ccccc2n1` [compound 414, 4-Furan-3-yl-6-(2-imidazo[1,2-a]pyridin-2-yl-ethyl)-6,7-dihydro-pyrrolo[3,4-b]pyridin-5-one], the microsomal CLint at 0.5 μM in data set [1] and in data set [2] was less than 100 µL/min/mg in each case. The same molecule showed an IC50 against PDE10A (human) of less than 100 nM.

Turning to `COc1ccc(-c2cn[nH]c2)c2c1CN(CCc1ccc3ccccc3n1)C2=O` [Example 180, 4-Methoxy-7-(1H-pyrazol-4-yl)-2-(2-quinolin-2-yl-ethyl)-2,3-dihydro-isoindol-1-one], the intrinsic clearance (microsomal CLint) at 0.5 μM was 100 to 220 µL/min/mg in data set [1] and greater than 220 µL/min/mg in data set [2]. The molecule further showed a concentration for half-maximal inhibition (IC50) against PDE10A (human) of less than 100 nM.

With `O=C1c2c(N3CCOCC3)ccnc2CN1CCc1ccc(Cl)cn1` [compound 505, 6-[2-(5-Chloro-2-pyridyl)ethyl]-4-morpholino-7H-pyrrolo[3,4-b]pyridin-5-one], the intrinsic metabolic clearance (microsomal CLint) at 0.5 μM in data set [1] and in data set [2] was less than 100 µL/min/mg each time. The same molecule displayed a half-inhibitory concentration (IC50) at PDE10A (human) of 200 to 500 nM.

Turning to `O=C1c2c(-c3ccncc3)ccnc2CN1CCc1ccc2ncccc2n1` [compound 512, 6-[2-(1,5-Naphthyridin-2-yl)ethyl]-4-(4-pyridyl)-7H-pyrrolo[3,4-b]pyridin-5-one], the microsomal CLint at 0.5 μM in data set [1] and in data set [2] was less than 100 µL/min/mg throughout. The molecule further came in with a half-maximal inhibitory concentration (IC50) against PDE10A (human) of less than 100 nM.

On to `O=C1c2c(OCF)ccc(-c3cncnc3)c2C(=O)N1CCc1cn2ccccc2n1` [compound 545, 4-(Fluoromethoxy)-2-(2-imidazo[1,2-a]pyridin-2-ylethyl)-7-pyrimidin-5-yl-isoindoline-1,3-dione], for which the microsomal CLint at 0.5 μM in data set [1] and in data set [2] was less than 100 µL/min/mg in each case. The molecule also displayed a concentration for half-maximal inhibition (IC50) at PDE10A (human) of less than 100 nM.

On to `O=C1c2nccc(-c3ccncc3)c2CN1CCc1cn2ccccc2n1` [compound 452, 6-(2-Imidazo[1,2-a]pyridin-2-yl-ethyl)-4-pyridin-4-yl-5,6-dihydro-pyrrolo[3,4-b]pyridin-7-one], for which the intrinsic clearance (microsomal CLint) at 0.5 μM in data set [1] and in data set [2] was less than 100 µL/min/mg throughout. This molecule gave an IC50 at PDE10A (human) of 200 to 500 nM.

Take `COc1ccc(N2CCOCC2)c2c1CN(CCc1nc3ccccc3n1C)C2=O` [Example 371, 4-Methoxy-2-[2-(1-methyl-1H-benzoimidazol-2-yl)-ethyl]-7-morpholin-4-yl-2,3-dihydro-isoindol-1-one]: the values for the microsomal CLint at 0.5 μM in data set [1] and in data set [2] were greater than 220 µL/min/mg and less than 100 µL/min/mg, respectively. This molecule also came in with a 50% inhibitory concentration (IC50) against PDE10A (human) of less than 100 nM.

In the case of `O=C1c2cccc(-c3cscn3)c2CN1CCc1cn2ccccc2n1` [compound 537, 2-(2-Imidazo[1,2-a]pyridin-2-ylethyl)-4-thiazol-4-yl-isoindolin-1-one], the microsomal CLint at 0.5 μM in data set [1] is less than 100 µL/min/mg; in data set [2], 100 to 220 µL/min/mg. The molecule also yielded an IC50 at PDE10A (human) of less than 100 nM.

With `Cn1c(CCN2Cc3cccc(N4CCS(=O)(=O)CC4)c3C2=O)nc2ccccc21` [Example 184, 7-(1,1-Dioxothiomorpholin-4-yl)-2-[2-(1-methyl-1H-benzoimidazol-2-yl)-ethyl]-2,3-dihydro-isoindol-1-one trifluoroacetate], the microsomal CLint at 0.5 μM was 100 to 220 µL/min/mg in data set [1] and less than 100 µL/min/mg in data set [2]. At PDE10A (human), the IC50 is less than 100 nM.

In the case of `O=C1c2c(cc(F)cc2-c2ccncc2)CN1CCc1ccc2ccccc2n1` [Example 15, 5-Fluoro-7-pyridin-4-yl-2-(2-quinolin-2-yl-ethyl)-2,3-dihydro-isoindol-1-one], the figures for the microsomal CLint at 0.5 μM in data set [1] and in data set [2] were 100 to 220 µL/min/mg and greater than 220 µL/min/mg, respectively. Moreover, the concentration for half-maximal inhibition (IC50) against PDE10A (human) was less than 100 nM.

For `O=C1c2c(N3CCOCC3)ccnc2CN1CCc1cn2ccsc2n1` [compound 425, 6-(2-Imidazo[2,1-b]thiazol-6-ylethyl)-4-morpholino-7H-pyrrolo[3,4-b]pyridin-5-one], the “Human mCl (mikrosomal clearance)” value in data set [1] (human liver microsomes, 0.5 μM test substance, 0.25 mg microsomal protein, pH 7.4, 37° C., NADPH) is “◯”. In addition, the microsomal CLint at 0.5 μM in data set [2] was less than 100 µL/min/mg. The same molecule gave a concentration for half-maximal inhibition (IC50) at PDE10A (human) of less than 100 nM.

In the case of `COc1ccc(-c2ccnn2C)c2c1C(=O)N(CCc1cn3ccccc3n1)C2` [compound 464, 2-(2-Imidazo[1,2-a]pyridin-2-yl-ethyl)-7-methoxy-4-(2-methyl-2H-pyrazol-3-yl)-2,3-dihydro-isoindol-1-one trifluoroacetate], the intrinsic metabolic clearance (microsomal CLint) at 0.5 μM in data set [1] and in data set [2] was less than 100 µL/min/mg in each case. Also, the IC50 on PDE10A (human) was less than 100 nM.

Turning to `O=C1c2cccc(N3CCS(=O)(=O)CC3)c2C(=O)N1CCc1ccc2ccccc2n1` [Example 250, 4-(1,1-Dioxothiomorpholin-4-yl)-2-(2-quinolin-2-yl-ethyl)-isoindole-1,3-dione], the microsomal CLint at 0.5 μM in data set [1] is 100 to 220 µL/min/mg; in data set [2], greater than 220 µL/min/mg. The 50% inhibitory concentration (IC50) against PDE10A (human) was less than 100 nM.

As for `COc1ccc(-c2cccnc2)c2c1CN(CCc1ccc3ccccc3n1)C2=O` [Example 185, 4-Methoxy-7-pyridin-3-yl-2-(2-quinolin-2-yl-ethyl)-2,3-dihydro-isoindol-1-one trifluoroacetate], the intrinsic metabolic clearance (microsomal CLint) at 0.5 μM was greater than 220 µL/min/mg in data set [1] and 100 to 220 µL/min/mg in data set [2]. This molecule yielded a half-inhibitory concentration (IC50) against PDE10A (human) of less than 100 nM.

In the case of `O=C1c2c(-c3ccc(F)cc3)ccc(F)c2CN1CCc1cn2ccccc2n1` [Example 379, 4-Fluoro-7-(4-fluoro-phenyl)-2-(2-imidazol[1,2-a]pyridin-2-yl-ethyl)-2,3-dihydro-isoindol-1-one], the microsomal CLint at 0.5 μM in data set [1] was 100 to 220 µL/min/mg; in data set [2] it was greater than 220 µL/min/mg. Moreover, the half-maximal inhibitory concentration (IC50) against PDE10A (human) is 100 to 200 nM.

With `O=C1c2c(-c3ccncc3F)ccnc2CN1CCc1cn2ccccc2n1` [compound 534, 4-(3-Fluoro-pyridin-4-yl)-6-(2-imidazo[1,2-a]pyridin-2-yl-ethyl)-6,7-dihydro-pyrrolo[3,4-b]pyridin-5-one], the microsomal CLint at 0.5 μM in data set [1] and in data set [2] was less than 100 µL/min/mg each time. Further, the 50% inhibitory concentration (IC50) against PDE10A (human) was less than 100 nM.

Take `O=C1c2c(-c3cccnc3)ccnc2CN1CCc1ccc2ccccc2n1` [Example 329, 4-Pyridin-3-yl-6-(2-quinolin-2-yl-ethyl)-6,7-dihydro-pyrrolo[3,4-b]pyridin-5-one]: the microsomal CLint at 0.5 μM in data set [1] and in data set [2] was 100 to 220 µL/min/mg in each case. The half-inhibitory concentration (IC50) on PDE10A (human) was less than 100 nM.

On to `O=C1c2c(cccc2-c2ccncc2)CN1CCc1nc2ccccc2n1C(F)F` [compound 450, 2-[2-(1-Difluoromethyl-1H-benzoimidazol-2-yl)-ethyl]-7-pyridin-4-yl-2,3-dihydro-isoindol-1-one trifluoroacetate], for which the microsomal CLint at 0.5 μM in data set [1] is greater than 220 µL/min/mg; in data set [2] it was 100 to 220 µL/min/mg. This molecule gave an IC50 against PDE10A (human) of 200 to 500 nM.

As to `O=C1c2cccc(-c3ccnnc3)c2CN1CCc1ccc2ccccc2n1` [Example 353, 4-Pyridazin-4-yl-2-(2-quinolin-2-yl-ethyl)-2,3-dihydro-isoindol-1-one], the microsomal CLint at 0.5 μM in data set [1] is less than 100 µL/min/mg; in data set [2], 100 to 220 µL/min/mg. Further, the 50% inhibitory concentration (IC50) at PDE10A (human) was in the range of 100 to 200 nM.

Take `O=C1c2c(-c3ccncc3)ccnc2CN1CCc1cn2cc(F)ccc2n1` [compound 494, 6-[2-(6-Fluoroimidazo[1,2-a]pyridin-2-yl)ethyl]-4-(4-pyridyl)-7H-pyrrolo[3,4-b]pyridin-5-one trifluoroacetate]: the microsomal CLint at 0.5 μM in data set [1] and in data set [2] was less than 100 µL/min/mg in each case. At PDE10A (human), this molecule gave a 50% inhibitory concentration (IC50) of less than 100 nM.

`COc1ccc(N2CCS(=O)(=O)CC2)c2c1CN(CCc1ccc3ccccc3n1)C2=O` [Example 189, 7-(1,1-Dioxo-thiomorpholin-4-yl)-4-methoxy-2-(2-quinolin-2-yl-ethyl)-2,3-dihydro-isoindol-1-one]: the microsomal CLint at 0.5 μM in data set [1] and in data set [2] was 100 to 220 µL/min/mg each time. On PDE10A (human), the half-inhibitory concentration (IC50) was less than 100 nM.

For the molecule `CC(C)c1ccc(CCN2Cc3nccc(N4CCOCC4)c3C2=O)nc1` [compound 401, 6-[2-(5-Isopropyl-2-pyridyl)ethyl]-4-morpholino-7H-pyrrolo[3,4-b]pyridin-5-one], the microsomal CLint at 0.5 μM is less than 100 µL/min/mg in data set [1] and 100 to 220 µL/min/mg in data set [2]. Besides, on PDE10A (human), the IC50 is less than 100 nM.

As to `O=C1Cc2ccc(-c3ccnc4c3C(=O)N(CCc3ccc5ccccc5n3)C4)cc2N1` [Example 165, 4-(2-oxo-2,3-dihydro-1H-indol-6-yl)-6-(2-quinolin-2-yl-ethyl)-6,7-dihydro-pyrrolo[3,4-b]pyridin-5-one], the microsomal CLint at 0.5 μM in data set [1] and in data set [2] was less than 100 µL/min/mg throughout. The molecule further showed an IC50 against PDE10A (human) of less than 100 nM.

Consider `Cc1ccc(CCN2Cc3nccc(-c4ccncc4)c3C2=O)nc1` [compound 481, 6-[2-(5-Methyl-2-pyridyl)ethyl]-4-(4-pyridyl)-7H-pyrrolo[3,4-b]pyridin-5-one trifluoroacetate], for which the microsomal CLint at 0.5 μM in data set [1] and in data set [2] was less than 100 µL/min/mg throughout. This molecule also registered a 50% inhibitory concentration (IC50) against PDE10A (human) of 200 to 500 nM.

With `COC(=O)C1CN(Cc2cccc3c2C(=O)N(CCc2ccc4ccccc4n2)C3)C1` [compound 531, 1-[3-Oxo-2-(2-quinolin-2-yl-ethyl)-2,3-dihydro-1H-isoindol-4-ylmethyl]-azetidine-3-carboxylic acid methyl ester], the microsomal CLint at 0.5 μM in data set [1] and in data set [2] was less than 100 µL/min/mg each time. This molecule had an IC50 against PDE10A (human) of less than 100 nM.
